Target: T1, Ubiquitin carboxyl-terminal hydrolase 30 (Homo sapiens, UniProt Q70CQ3)
T1 sequence (Q70CQ3 whole entry): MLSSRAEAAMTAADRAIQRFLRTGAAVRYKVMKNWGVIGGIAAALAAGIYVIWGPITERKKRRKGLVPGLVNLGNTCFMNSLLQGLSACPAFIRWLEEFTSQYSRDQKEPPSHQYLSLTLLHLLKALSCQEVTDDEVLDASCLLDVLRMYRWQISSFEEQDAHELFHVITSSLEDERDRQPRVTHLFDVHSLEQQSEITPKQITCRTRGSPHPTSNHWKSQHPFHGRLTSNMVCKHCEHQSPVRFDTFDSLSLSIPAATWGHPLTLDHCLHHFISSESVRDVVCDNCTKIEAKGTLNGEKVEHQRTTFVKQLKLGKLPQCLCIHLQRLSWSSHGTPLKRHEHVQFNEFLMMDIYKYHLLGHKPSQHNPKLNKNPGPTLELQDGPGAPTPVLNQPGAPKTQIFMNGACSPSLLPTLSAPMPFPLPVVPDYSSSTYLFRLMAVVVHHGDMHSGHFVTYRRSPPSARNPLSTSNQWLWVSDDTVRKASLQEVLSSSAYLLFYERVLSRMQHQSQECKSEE
Assay: Inhibition of untagged human USP30 catalytic domain (57 to 517 residues) expressed in Escherichia coli using TAMRA labeled ubiquitin peptide as substrate preincubated for 30 min followed by substrate addition and measured after 2 hrs by fluorescence polarization assay

| IC50 [nM] | SMILES |
| --- | --- |
| 1000 to 10000 | CN1c2ccccc2CN([C@@H]2CCN(C#N)C2)S1(=O)=O |
| 100 to 1000 | CN1c2ccc(-c3ccccc3)cc2CN([C@@H]2CCN(C#N)C2)S1(=O)=O |
| 1000 to 10000 | N#CN1CC[C@@H](N2Cc3ccnc(N4CCOCC4)c3NS2(=O)=O)C1 |

— ChEMBL document CHEMBL4418303, “1-cyano-pyrrolidine derivatives as inhibitors of usp30” (2017)
